In one data set the target is ANXA2 (Homo sapiens, UniProt P07355). In words: Microscale thermophoresis (MST), ANXA2 binding. The conditions noted are these: read-out: apparent Kd, ANXA2. The source says: Recombinant proteins and antibodies. Recombinant annexin A2, annexin A2 with glutathione-S-transferase (GST) tag, annexin A1, and annexin A3 proteins were purchased from MyBioSource, Inc. (San Diego, CA, USA). Purified ANXA2 protein and purified pANXA2 protein were gifts from Dr. Gabriel Bimme (Beth Israel Deaconess Medical Center, Boston, MA). Rabbit monoclonal anti-annexin A2 antibody (D11G2, #8235), Rabbit monoclonal anti-Rab5 (C8B1, #3547), and rabbit monoclonal anti-Rab7 (D95F2, #936 7) primary antibodies were purchased from Cell Signaling Technology, Inc. (Danvers, MA, USA). Mouse monoclonal anti-β-actin 2A3 (sc-517582), mouse monoclonal anti-pANXA2 antibody (11.Tyr 24) (sc-135752), rabbit polyclonal anti-NOS2 (C-19, sc-649), rabbit polyclonal anti-ARG1 (H-52, sc-20150) antibodies, and protein A/G agarose were purchased from Santa Cruz Biotechnology, Inc. (Dallas, TX, USA). […]
MST was performed using the Monolith NT.115 (Nanotemper Technologies, Munich, Germany). […] Fluorescence was assessed in MST-2 buffer (50 mM Tris-HCl, pH 7.4; 150 mM NaCl; 10 mM MgCl2). […] The apparent Kd values were calculated from fragment concentration-dependent changes in normalized fluorescence (Fraction Bound) of LS301 after 5 seconds of thermophoresis based on mass action law using the MO Affinity Analysis v2.3 software.
For orientation: Microscale thermophoresis detects binding through changes in fluorescence in a small temperature gradient.

In data set [1] the test system is lung (A549), breast (MDA-MB-231 and 4T1), and myeloid leukemia (HL60) cell lines. The data set can be described thus: Cellular uptake in cancer cell lines, live-cell imaging. The data set is classed as cell-based. Particulars: A549, MDA-MB-231, 4T1, HL60. On the procedure: In general, cultured cancer cells were grown and incubated with the indicated amount of probe in Lab-Tek 8-chambered slides for the indicated time durations. Cells were washed with PBS at selected time points and underwent conventional slide preparation, ICC if indicated, and viewing under epifluorescence or confocal. For live-cell imaging of LS301, internalization at 37° C. in human dermal fibroblasts (Coriell Cell Technologies) and tumor cells including 4T1luc, MDA-MB-231, 5TGM, A549, and HL60 (ATCC) cells were cultured in appropriate media supplemented with 10% […] and penicillin/streptomycin and incubated at 37° C. in 5% CO2 incubator. The cells were grown on Lab-Tek 8-chamber slides (Nunc Inc. Rochester, NY) in the culture medium overnight before the experiment. The compounds were dissolved in 20% DMSO in […] PBS (pH 7.4) (Sigma, St. Louis, MO) for stocking solution and mixed with culture medium to reach the final concentration. Cells were incubated with 1 μM compounds in chamber slides at different time points at 37° C. After LS301 treatment, the culture media was removed and followed by adding culture media containing SYTO 13 nuclear dye from (Thermo Fisher Scientific, Waltham, MA) for 45 minutes at 37° C. For assessing cellular colocalization of LS301 with lipid rafts, the Vybrant AlexaFluor 488 Lipid Raft Labeling Kit (Thermo Fisher Scientific, Waltham, MA, USA) was used per the manufacturer's instructions. […]. LS301 and AlexaFluor 488 fluorescence were imaged using the cypate filter set (Ex/Em 750-800 nm/818-873 nm) and fluorescein isothiocyanate (FITC) filter set (Ex/Em 460-500/510-560 nm), respectively.

The test system of data set [2] is fibroblast co-cultured with ANXA2-positive GFP-expressing 4T1 cells. In words: Fibroblast and 4T1 co-culture uptake. In kind it is cell-based. The method, then: For co-culture experiments on intercellular pANXA2/ANXA2 transfer, fibroblasts (FB) (5×10^4 cells/well) were seeded on a 35-mm glass-bottom Petri dish (MarTek Cor. Ashland, MA, USA) overnight before seeding of 5×10^4 of cancer cells and further culture overnight before the experiment. LS301 (1 μM) was incubated with co-cultures of FB and ANXA2-YFP transfected HL60 cells, co-cultures of FB and wild-type HL60 cells, or co-cultures of FB and 4T1-GFP cells at 37° C. for 3 hours and then washed twice with 0.01 M PBS (pH 7.4). Then, the cells were fixed with 4% paraformaldehyde for 10 minutes.

Another data set relates to tumor. In words: NIR contrast evaluation of DMSO and ethanol-based formulations. The data set is classed as in vivo. The source says: No difference in histology between the various solvents was seen.

Structures are written as SMILES. Positions of bridges follow the written chain, without caps; N, C: chain ends. Non-standard residues stand in square brackets, D forms with d. Residues, ends and D or L forms follow the SMILES beside them. *: point of attachment. X1 = CC1(C)C(/C=C/C=C/C=C/C=C2/N(CCC(=O)*)c3ccc4ccccc4c3C2(C)C)=[N+](CCC(=O)[O-])c2ccc3ccccc3c21

ANXA2, sequence (P07355 whole entry): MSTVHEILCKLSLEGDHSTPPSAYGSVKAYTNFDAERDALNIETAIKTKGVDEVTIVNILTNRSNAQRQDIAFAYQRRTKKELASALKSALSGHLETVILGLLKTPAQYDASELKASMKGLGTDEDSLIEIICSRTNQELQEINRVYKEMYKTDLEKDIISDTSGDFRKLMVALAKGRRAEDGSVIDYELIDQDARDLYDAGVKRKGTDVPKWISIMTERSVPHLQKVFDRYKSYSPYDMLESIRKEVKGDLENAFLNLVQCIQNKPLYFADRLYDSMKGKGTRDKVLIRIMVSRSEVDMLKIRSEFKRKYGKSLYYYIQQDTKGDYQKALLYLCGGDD

For `CC1(C)C(/C=C/C=C/C=C/C=C2/N(CCC(=O)N[C@@H]3CSSC[C@@H](C(=O)N[C@@H](CCCCN)C(=O)O)NC(=O)[C@@H]4CCCN4C(=O)[C@H](CO)NC(=O)[C@H](CC(=O)O)NC(=O)[C@H](CCCNC(=N)N)NC(=O)CNC3=O)c3ccc4ccccc4c3C2(C)C)=[N+](CCC(=O)[O-])c2ccc3ccccc3c21` [LS301, cypate-cyclic (DCys-Gly-Arg-Asp-Ser-Pro-Cys)-Lys-OH] (X1-[dC]GRDSPCK-OH; disulfide 1-7), at ANXA2, the Kd came out at 0.389 ± 0.015 nM. Moreover, in data set [1], the “time over which maximum cellular uptake is maintained” value was “over 24 hours” and the “time to maximum concentration of cellular uptake” value was determined as 12 h. For the same compound, in data set [2], the uptake in co-culture result is “LS301 uptake by tumor cells and fibroblasts”. Moreover, the “tumor uptake compared to renal or hepatic clearance” value with tumor (20% PEG400 solutions) is recorded as “increased tumor uptake”. Moreover, the NIR contrast result in the data set on tumor (in 20% PEG400) is on record as “significantly increased contrast”. In addition, the clearance mechanism result in the data set on tumor (in vivo) is “cleared via renal and hepatic mechanisms”.

The values are drawn from patent publication US12121596B2, “Near infrared fluorescent dyes, formulations and related methods” (Washington University, priority 2019, dated 2024).
